In patent US20230295152A1 (SENDA BIOSCIENCES, INC., priority 2019, published 2023):
Converted amounts (≈) assume the structure as drawn. Read-outs that look alike come from different tables or passages of the source.

What was measured:
[1] = Solubility Determination Assay in PBS pH 1.6 and pH 7.4; format: physicochemical; details: PBS buffer, aqueous buffer, kinetic from dmso stock
In short: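 Compounds from 10 mM DMSO stock diluted into PBS pH 1.6 or pH 7.4 (15 μL into 485 μL), stirred 2 hours, then filtered. Filtrate quantified by LC-MS/MS against a standard of known concentration with internal standard; single determination.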

[2] = Hepatocyte Stability Assay, human; format: in vitro ADME; details: for CLint scaled at 1 μM: cryopreserved hepatocytes in suspension, human hepatocytes, read-out: Human hepatocyte clearance
Experimental: • Preparation of working solutions: 10 mM stock solutions of test compound and positive control were prepared in DMSO. In separate conical tubes, the 10 mM solution of test compound and the positive control were diluted to 100 μM by combining 198 μL of 50% acetonitrile/50% water and 2 μL of 10 mM stock.
Preparation of Hepatocytes: Incubation medium (William's E Medium supplemented with GlutaMAX) and hepatocyte thawing medium were placed in a 37° C. water bath and allowed warming for at least 15 minutes prior to use. A vial of cryopreserved hepatocytes was transferred from storage, ensuring that vials remained at cryogenic temperatures until thawing process ensued. Cells were thawed by placing the vial in a 37° C. water bath and gently shaking the vials for 2 minutes. After thawing was completed, vial was sprayed with 70% ethanol and transferred to a biosafety cabinet. Wide-bore pipette tip were used to transfer hepatocytes into 50 mL conical tube containing thawing medium. The 50 mL conical tube were placed into a centrifuge and spun at 100 g for 10 minutes. Upon completion of spin, thawing medium was aspirated and resuspended hepatocytes in enough incubation medium to yield ˜1.5×10^6 cells/mL. Using an AO/PI Staining, cells were counted and the viable cell density was determined. Cells with poor viability (<75% viability) were determined to be not acceptable for use. Cells were diluted with incubation medium to a working cell density of 0.5×10^6 viable cells/mL.
Procedure for Stability Determination: 198 μL of hepatocytes were pipetted into each wells of a 96-well non-coated plate. The plate was placed in the incubator to allow the hepatocytes to warm for 10 minutes. 2 μL of the 100 μM test compound or positive control solutions were pipetted into respective wells of the 96-well non-coated plate to start the reaction. The plate was returned to the incubator for the designed time points. Well contents was transferred in 25 μL aliquots at time points of 0, 15, 30, 60, 90 and 120 minutes. The aliquots were then mixed with 6 volumes (150 μL) of acetonitrile containing internal standard, IS (100 nM alprazolam, 200 nM caffeine and 100 nM tolbutamide) to terminate the reaction. The mixture was vortex for 5 minutes. Samples were centrifuged for 45 minutes at 3,220 g. An aliquot of 100 μL of the supernatant was diluted by 100 μL ultra-pure water, and the mixture was used for LC/MS/MS analysis. All incubations were performed in duplicate.
Data Analysis: All calculations were carried out using Microsoft Excel. Peak areas were determined from extracted ion chromatograms. In vitro half-life (t1/2) of parent compound was determined by regression analysis of the percent parent disappearance vs. time curve.
The in vitro half-life (in vitro t1/2) was determined from the slope value:
Conversion of the in vitro t1/2 (in min) into the in vitro intrinsic clearance (in vitro CLint, in μL/min/1×10^6 cells) was done using the following equation (mean of duplicate determinations):
V=incubation volume(0.2 mL);
N=number of hepatocytes per well(0.1×10^6 cells).
“+++” indicates a CLint value less than 20 mL/min/Kg, “++” indicates a CLint between 20 and 50 mL/min/Kg, and “+” indicates an CLint above 50 mL/min/Kg.

[3] = PBS pH 1.6, 25° C., read-out: Aq. Solubility at pH = 1.6
[4] = PBS pH 7.4, 25° C., read-out: Aq. Solubility at pH = 7.4

Structure (SMILES) | solubility at 2 h [1, 3] [µM] | solubility at 2 h [1, 4] [µM] | CLint scaled at 1 μM [2] [mL/min/kg] | Human hepatocyte intrinsic clearance, suspension Hheps ClInt (% Qh) ([2]; suspension human hepatocytes)
C[C@@H](CO)n1cnc2c(-c3cccc(F)c3)nc(-c3ccc(Cl)cc3)cc2c1=O [Compound 7] | 0.1 to 1 (≈ 0.041 to 0.41 µg/mL) | < 0.1 | 20 to 50 | 
C[C@@H](CO)n1cnc2c(-c3cccnc3)nc(-c3ccc(C(F)(F)F)cn3)cc2c1=O [Compound 46, (S)-3-(1-hydroxypropan-2-yl)-8-(pyridin-3-yl)-6-(5-(trifluoromethyl)pyridin-2-yl)pyrido[3,4-d]pyrimidin-4(3H)-one] | ≥ 1 | ≥ 1 | < 20 | <31
Cn1cc(-c2nc(-c3ccc(C4CC4)nc3)cc3c(=O)n(CC(C)(C)O)cnc23)cn1 [Compound 82] | ≥ 1 | ≥ 1 | < 20 | 
C[C@@H](CO)n1cnc2c(N3CCCCC3)nc(-c3ccc(Cl)cc3)cc2c1=O [Compound 177, (S)-6-(4-chlorophenyl)-3-(1-hydroxypropan-2-yl)-8-(piperidin-1-yl)pyrido[3,4-d]pyrimidin-4(3H)-one] | ≥ 1 | 0.1 to 1 (≈ 0.0399 to 0.399 µg/mL) | 20 to 50 | 
C[C@@H](CO)n1cnc2c(-c3cnn(C)c3)nc(-c3ccc(Cl)cc3)cc2c1=O [Compound 27] | 0.1 to 1 (≈ 0.0396 to 0.396 µg/mL) | 0.1 to 1 (≈ 0.0396 to 0.396 µg/mL) | < 20 | 
Cn1cc(-c2nc(-c3ccc(C(F)(F)F)nc3)cc3c(=O)n(C[C@H](O)C(F)(F)F)cnc23)cn1 [Compound 111, (S)-8-(1-methyl-1H-pyrazol-4-yl)-3-(3,3,3-trifluoro-2-hydroxypropyl)-6-(6-(trifluoromethyl)pyridin-3-y1)pyrido[3,4-d]pyrimidin-4(3H)-one] | 0.1 to 1 (≈ 0.0484 to 0.484 µg/mL) | < 0.1 | < 20 | 
C[C@H](O)Cn1cnc2c(-c3cnn(C)c3)nc(-c3ccc(C(F)(F)F)cn3)cc2c1=O [Compound 142, (S)-3-(2-hydroxypropyl)-8-(1-methyl-1H-pyrazol-4-yl)-6-(5-(trifluoromethyl)pyridin-2-yl)pyrido[3,4-d]pyrimidin-4(3H)-one] | 0.1 to 1 (≈ 0.043 to 0.43 µg/mL) | 0.1 to 1 (≈ 0.043 to 0.43 µg/mL) | < 20 | 
C[C@@H](CO)n1cnc2c(-c3cnn(C)c3)nc(-c3cnc(C(F)(F)F)nc3)cc2c1=O [Compound 95] | ≥ 1 | ≥ 1 | < 20 | 
Cn1cc(-c2nc(-c3ccc(C(F)(F)F)nc3)cc3c(=O)n([C@H]4COC[C@H]4O)cnc23)cn1 [Compound 88] | ≥ 1 | 0.1 to 1 (≈ 0.0458 to 0.458 µg/mL) | < 20 | 
C[C@@H](CO)n1cnc2c(-c3cnsc3)nc(-c3ccc(Cl)cc3)cc2c1=O [Compound 58] | < 0.1 | < 0.1 | < 20 | 
Cn1cc(-c2nc(-c3ccc(C(F)(F)F)nc3)cc3c(=O)n([C@H]4COC[C@@H]4O)cnc23)cn1 [Compound 114, 3-((3S,4R)-4-hydroxytetrahydrofuran-3-yl)-8-(1-methyl-1H-pyrazol-4-yl)-6-(6-(trifluoromethyl)pyridin-3-yl)pyrido[3,4-d]pyrimidin-4(3H)-one] | 0.1 to 1 (≈ 0.0458 to 0.458 µg/mL) | 0.1 to 1 (≈ 0.0458 to 0.458 µg/mL) | < 20 | 

Second part, led by results:

solubility at 2 h [1, 3] [µM] | solubility at 2 h [1, 4] [µM] | CLint scaled at 1 μM [2] [mL/min/kg] | Structure (SMILES) | Human hepatocyte intrinsic clearance, suspension Hheps ClInt (% Qh) ([2]; suspension human hepatocytes)
≥ 1 | ≥ 1 | 20 to 50 | C[C@@H](CO)n1cnc2c(-c3cccnc3)nc(-c3ccc(OC(F)(F)F)nc3)cc2c1=O [Compound 50] | 
≥ 1 | ≥ 1 | < 20 | C[C@@H](O)Cn1cnc2c(-c3cccnc3)nc(-c3ccc(C(F)(F)F)nc3)cc2c1=O [Compound 112, (R)-3-(2-hydroxypropyl)-8-(pyridin-3-yl)-6-(6-(trifluoromethyl)pyridin-3-yl)pyrido[3,4-d]pyrimidin-4(3H)-one] | 
≥ 1 | ≥ 1 | < 20 | CC(C)(O)Cn1cnc2c(-c3cccnc3)nc(-c3ccc(C(F)(F)F)cc3)cc2c1=O [Compound 16] | 
≥ 1 | ≥ 1 | 20 to 50 | Cc1ccc(-c2cc3c(=O)n([C@@H](C)CO)cnc3c(-c3cccnc3)n2)cc1 [Compound 17, (S)-3-(1-hydroxypropan-2-yl)-8-(pyridin-3-yl)-6-(p-tolyl)pyrido[3,4-d]pyrimidin-4(3H)-one] | 
0.1 to 1 (≈ 0.0447 to 0.447 µg/mL) | < 0.1 | < 20 | CC(C)(O)Cn1cnc2c(-c3cnsc3)nc(-c3ccc(C(F)(F)F)cn3)cc2c1=O [Compound 101, 3-(2-hydroxy-2-methylpropyl)-8-(isothiazol-4-yl)-6-(5-(trifluoromethyl)pyridin-2-yl)pyrido[3,4-d]pyrimidin-4(3H)-one] | 
≥ 1 | ≥ 1 | < 20 | Cn1cc(-c2nc(-c3ccc(Cl)cc3)cc3c(=O)n(CC(C)(C)O)cnc23)cn1 [Compound 21] | 
 | ≥ 1 | < 20 | C[C@@H](CO)n1cnc2c(-c3cccc(F)c3)nc(-c3ccc(C(F)(F)F)nc3)cc2c1=O [Compound 8] | 
≥ 1 | ≥ 1 | < 20 | O=c1c2cc(-c3ccc(C4CC4)nc3)nc(-c3cccnc3)c2ncn1C[C@H](O)C(F)(F)F [Compound 120, (S)-6-(6-cyclopropylpyridin-3-yl)-8-(pyridin-3-yl)-3-(3,3,3-trifluoro-2-hydroxypropyl)pyrido[3,4-d]pyrimidin-4(3H)-one] | 
 | 0.1 to 1 (≈ 0.0444 to 0.444 µg/mL) | < 20 | C[C@@H](CO)n1cnc2c(-c3cccc(F)c3)nc(-c3ccc(C(F)(F)F)cn3)cc2c1=O [Compound 47, (S)-8-(3-fluorophenyl)-3-(1-hydroxypropan-2-yl)-6-(5-(trifluoromethyl)pyridin-2-yl)pyrido[3,4-d]pyrimidin-4(3H)-one] | 
0.1 to 1 (≈ 0.0444 to 0.444 µg/mL) | < 0.1 | < 20 | Cn1cc(-c2nc(-c3ccc(C(F)(F)F)cn3)cc3c(=O)n(CC(C)(C)O)cnc23)cn1 [Compound 103, 3-(2-hydroxy-2-methylpropyl)-8-(1-methyl-1H-pyrazol-4-yl)-6-(5-(trifluoromethyl)pyridin-2-yl)pyrido[3,4-d]pyrimidin-4(3H)-one] | 
≥ 1 | ≥ 1 | < 20 | C[C@@H](CO)n1cnc2c(-c3cccnc3)nc(-c3cnc(C(F)(F)F)s3)cc2c1=O [Compound 85] | 
≥ 1 | ≥ 1 | < 20 | O=c1c2cc(-c3ccc(C(F)(F)F)nc3)nc(-c3cccnc3)c2ncn1[C@H]1COC[C@@H]1O [Compound 117] | 
≥ 1 | ≥ 1 | < 20 | C[C@@H](CO)n1cnc2c(-c3cccnc3)nc(-c3ccc(C(F)(F)F)nc3)cc2c1=O [Compound 12] | 
0.1 to 1 (≈ 0.043 to 0.43 µg/mL) | 0.1 to 1 (≈ 0.043 to 0.43 µg/mL) | < 20 | CC(C)(O)Cn1cnc2c(-c3cn[nH]c3)nc(-c3ccc(C(F)(F)F)nc3)cc2c1=O [Compound 51] | 
